These results are taken from patent US12364721B2, “Compositions and methods for treatment of inflammatory and immune diseases” (Prolacta Bioscience, Inc., priority 2019, dated 2025).

Test [1] has as its system B. longum subsp. infantis. The test can be described thus: Viability of B. longum subsp. infantis after exposure to acid reducing compounds (anaerobic CFU). The test is classed as cell-based. As to conditions: 1 μg/ml and 0.5 μg/ml in citrate buffer (pH 5), 3 hours at 37° C.; with respect to buffer only controls. The protocol: Viability of B. longum subsp. infantis following exposure to various acid reducing compounds was examined. The benzimidazole derivative compounds omeprazole, esomeprazole, lansoprazole, pantoprazole, and rabeprazole and the H2 receptor antagonist famotidine were suspended in citrate buffer (pH 5) to concentrations of 1 μg/ml and 0.5 μg/ml. An amount of 2.4×10^8 colony forming units (CFU) B. longum subsp. infantis was pelleted and resuspended in each of the citrate buffer and drug solutions. Controls included 2.4×10^8 CFU B. longum subsp. infantis added to citrate buffer alone. Cells were incubated for 3 hours at 37° C. and then plated under anaerobic conditions. Anaerobic CFU were quantified to assess viability.

In test [2] the test system is B. longum subsp. infantis. The test can be described thus: Growth of B. longum subsp. infantis in the presence of acid-reducing compounds (OD600). The format is cell-based. To be noted: 24 hours; 125 μg/mL; versus vehicle controls. The method, then:
Growth of B. longum subsp. infantis was assessed in the presence of various acid-reducing compounds, including proton pump inhibitor (PPI) compounds and an H2 receptor antagonist. Stock solutions were prepared by adding 10 mg/mL omeprazole, esomeprazole, lansoprazole, pantoprazole, rabeprazole, and famotidine to DMSO. The stock solutions were diluted 1:4 in PBS and then added in 2-fold serial dilutions to Reinforced Clostridial Media (RCM). The media was then inoculated with 5×10^5 colony forming units (CFU) of B. longum subsp. infantis and incubated under anaerobic conditions at 37° C. Vehicle only control groups consisted of 5×10^5 CFU B. longum subsp. infantis incubated in RCM with the same amounts of PBS and DMSO as the PPI conditions for each dose.

Turning to `Cc1c(OCC(F)(F)F)ccnc1C[S+]([O-])c1nc2ccccc2[nH]1` (centres unmarked) [lansoprazole], in test [1], the “anaerobic CFU counts” value was “generally higher”. For the same compound, the OD600 values result in test [2] was “reduced OD600 values with respect to vehicle controls”.
